Source: article PMC6627331, “Identification of Small Molecule Inhibitors of Staphylococcus aureus RnpA” (Antibiotics, 2019)
In brackets after ≈: the same amount, converted by molar mass. Read-outs that look alike come from different tables or passages of the source.

Legend:
S. aureus UAMS-1 [1] = assay: Minimum inhibitory concentration (MIC) testing; format: cell-based, Staphylococcus aureus
Procedure: Minimum inhibitory concentration (MIC) testing was performed using to Clinical & Laboratory Standards Institute (CLSI) guidelines. Accordingly, individual wells of a 96-well microtiter plate were inoculated with 10^4 colony forming units (CFU) of S. aureus UAMS-1 containing two-fold increasing concentrations (0 to 256 μg·mL^−1) of the indicated antibiotic or putative RnpA inhibitor compound, and incubated at 37 °C for 16 h in MHB. The MIC was defined as the lowest concentration of compound in which there was no visible bacterial growth in the well.

[2] = target: T1, S. aureus RNase P (RnpA + rnpB) (Staphylococcus aureus, UniProt P0A0H5); assay: RnpA-dependent RNase P in vitro ptRNA^Tyr processing assay; format: biochemical; settings: in vitro ptRNA^Tyr processing
T1 construct: hexahistidine (His6) (N); made in house; host or cells: E. coli BL21 (DE3), plasmid pEXP5-nt
T1 sequence (P0A0H5 1-117): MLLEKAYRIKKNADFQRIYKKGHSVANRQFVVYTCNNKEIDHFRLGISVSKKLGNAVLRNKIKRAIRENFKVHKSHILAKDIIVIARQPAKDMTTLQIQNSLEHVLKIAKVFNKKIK
Procedure: S. aureus RNase P activity assays were performed according to conditions described previously. Briefly, ptRNA^Tyr and rnpB RNA species were first denatured by heating to 95 °C for 5 min then slow cooled to room temperature. RNase P was reconstituted by mixing an equal molar ratio of rnpB and RnpA for 15 min at 37 °C. Precursor tRNA processing inhibition reactions were performed by mixing 1.25 pmol of reconstituted RNase P (RnpA + rnpB) with an equal volume of 2× low salt buffer (50 mM Tris-HCl pH 8.0, 5 mM MgCl2) in the presence of DMSO (negative control) or the indicated compound (≤500 µM) and incubated for 5 min at 37 °C. 5 pmol ptRNA^Tyr was added and the mixture was incubated at 37 °C 15 min. Reactions were stopped by adding 2× RNA loading dye and heating at 65 °C for 10 min. Each sample was electrophoresed in a 7 M urea/8% polyacrylamide gel then stained with ethidium bromide. The Biorad EZ Gel Doc imaging system was used to visualize the RNA and relative abundance of the mature tRNA^Tyr band (% processing) in the negative control or in samples containing the indicated compounds and analyzed using Biorad Image Lab densitometry software. The inhibitory activity of the indicated compounds were calculated as a % inhibition using the following equation: […].
To assess IC50, % RNase P processing inhibition was plotted against compound concentration and a linear best fit equation was generated to calculate the IC50.

[3] = tested on: norA mRNA in S. aureus UAMS-1 cells; assay: Cellular norA mRNA turnover (qRT-PCR after rifampin arrest); format: cell-based, Staphylococcus aureus; settings: 0.5× MIC for 30 min, 5 min post-transcriptional arrest; for norA mRNA degradation: mock 99%
Procedure: S. aureus mRNA half-life determinations were performed as previously described. […] Rifampin (Sigma-Aldrich) was added to the culture at a final concentration of 200 μg·mL^−1 to inhibit de novo transcript synthesis. Half of the culture was immediately removed and combined with an equal volume of ice cold acetone:ethanol (1:1 v/v). The remaining culture was returned to the shaking 37 °C incubator for an additional 5 min and then subsequently combined with an equal volume of ice cold acetone:ethanol (1:1 v/v) and stored at −80 °C until processing, as described below.
For total bacterial RNA isolation, cell suspensions were thawed on ice, centrifuged at 3000 rpm for 10 min at 4 °C, the resulting cell pellets were resuspended in ice-cold TE buffer (10 mM Tris-HCl, pH 8.0, 1 mM EDTA), and transferred into a FastPrep bead beater tube containing 0.1 mm silica spheres (MP Biomedicals; Santa Ana, CA, USA). Mixtures were homogenized at 5 m·s^−1 for 20 s, rested on ice for 5 min, and then homogenized again at 4.5 m·s^−1 in a FastPrep-24 instrument. Cellular debris were collected by centrifugation at 13,000 rpm for 15 min at 4 °C, whereas bacterial RNA was isolated from the supernatant using Qiagen RNeasy Mini Kits and miRNeasy Mini Kits were used to isolate total bacterial RNA, following the manufacturer’s instructions. RNA quantity and quality were measured using a NanoDrop 2000 spectrophotometer (ThermoFisher Scientific). For qRT-PCR, 1 μg of total bacterial RNA was treated with 3 units of DNase I (Ambion; Carlsbad, CA, USA) for 1 h at 37 °C to remove any DNA contaminants. RNA cleanup was performed using the Qiagen RNeasy Mini Kit. Subsequently, the BioRad iScript cDNA Synthesis Kit (Hercules, CA, USA) was used to convert 200 ng of RNA into cDNA, which was amplified using the BioRad iQ SYBR Green Supermix per the manufacturer’s instructions and fluorescence was read on the Biorad CFX 96 Connect machine. Transcript levels were compared to the internal control 16S rRNA (ΔΔCt method), and plotted as a fold change compared to control. The following primer pairs were used in this study for qRT-PCR: norA forward—[…] and norA reverse-[…] CTAAG; -15 ptRNA^Tyr forward-[…] and tRNA^Tyr reverse-TGGTG […]; 16S rRNA forward-[…] and 16S rRNA reverse-[…].

HepG2 cells = assay: MTT human cell cytotoxicity testing; format: cell-based; settings: SAR figures; 4× MIC exposure for 24 h
Procedure: Human HepG2 hepatocytes were seeded in individual wells of a 96-well cell-culture treated microtiter plate at a concentration of 1 × 10^5 cells per well and incubated in Dulbecco’s Modified Eagle Medium (DMEM) supplemented with 10% fetal bovine serum at 37 °C with 5% carbon dioxide overnight. Cells were then treated with DMSO (negative control) or the indicated agent for 24 h. MTT Cell Proliferation Assay Kits were used to assess viability according to the manufacturer’s recommendations (American Type Culture Collection; Manassas, VA, USA).

S. aureus RnpA = target: T2, S. aureus RnpA (Staphylococcus aureus, UniProt P0A0H5); assay: RnpA-mediated in vitro spa mRNA degradation assay; format: biochemical
T2 construct: hexahistidine (His6) (N); made in house; host or cells: E. coli BL21 (DE3), plasmid pEXP5-nt
T2 sequence (P0A0H5 1-117): T1 sequence (P0A0H5 1-117)
Procedure: RnpA-mediated RNA degradation assays were performed as previously described. Briefly, 1 pmol of spa mRNA was incubated with 5 pmol RnpA at 37 °C for 30 min in reaction buffer (50 mM Tris-HCl pH 8.0, 2 mM NaCl, 2 mM MgCl2) in the absence or presence of the indicated compound (≤500 µM). The inhibitory effects of the test compounds were calculated using Biorad ImageLab densitometry software to measure the signal intensity of the spa band in the negative control (spa alone), positive control (RnpA + spa + DMSO), and experimental samples (RnpA + spa + test compound) separated on a 1.2% formaldehyde-agarose gel. Background signal from the positive control sample sometimes resulted due to incomplete degradation of transcripts. Thus, the signal intensity of the positive control was taken into account when calculating the percent inhibition. The raw signals from the positive (+RnpA) and negative (-RnpA) controls were converted into percentage, by normalizing the positive control (+RnpA) signal to 0% RnpA inhibition and the negative control (-RnpA) to 100% RnpA inhibition. Similarly, the raw signals from the test compounds were reported as percent RnpA inhibition using the following equation: [(experimental−positive control)/(negative control−positive control)] × 100. […] To assess IC50, % RnpA degradation inhibition was plotted against compound concentration; a linear best fit equation was generated and utilized to calculate the IC50.

[4] = tested on: ptRNA^Tyr levels in S. aureus UAMS-1 cells; assay: Cellular ptRNA^Tyr accumulation (qRT-PCR); format: cell-based, Staphylococcus aureus; settings: 1× MIC; 30 min or 1 h
Procedure: ptRNA^Tyr cellular pools were measured, as previously described. […] The culture was immediately removed, combined with an equal volume of ice cold acetone:ethanol (1:1 v/v) and stored at −80 °C until processing, as described below.
For total bacterial RNA isolation, cell suspensions were thawed on ice, centrifuged at 3000 rpm for 10 min at 4 °C, the resulting cell pellets were resuspended in ice-cold TE buffer (10 mM Tris-HCl, pH 8.0, 1 mM EDTA), and transferred into a FastPrep bead beater tube containing 0.1 mm silica spheres (MP Biomedicals; Santa Ana, CA, USA). Mixtures were homogenized at 5 m·s^−1 for 20 s, rested on ice for 5 min, and then homogenized again at 4.5 m·s^−1 in a FastPrep-24 instrument. Cellular debris were collected by centrifugation at 13,000 rpm for 15 min at 4 °C, whereas bacterial RNA was isolated from the supernatant using Qiagen RNeasy Mini Kits and miRNeasy Mini Kits were used to isolate total bacterial RNA, following the manufacturer’s instructions. RNA quantity and quality were measured using a NanoDrop 2000 spectrophotometer (ThermoFisher Scientific). […] Subsequently, the BioRad iScript cDNA Synthesis Kit (Hercules, CA, USA) was used to convert 200 ng of RNA into cDNA, which was amplified using the BioRad iQ SYBR Green Supermix per the manufacturer’s instructions and fluorescence was read on the Biorad CFX 96 Connect machine. […]

[5] = tested on: S. aureus RN4220 pML100::rnpA-KD; assay: Cellular RnpA depletion hypersusceptibility growth curve; format: cell-based, Staphylococcus aureus; settings: […] MIC JC2 or 0.5× MIC RNPA2000
Procedure: 100 μL of each culture was transferred to a 96 well flat bottom plate in duplicate and growth monitored by OD600 reading every 30 min over 8 h at 37 °C. Hypersusceptibility growth curves were averaged from two biological replicates in technical duplicate.

S. aureus UAMS-1 [6] = assay: Galleria mellonella model of S. aureus infection; format: in vivo; settings: 10^4 CFU UAMS-1, single dose 100 mg·kg^−1 1 h post-infection, 16 h; DMSO 60%
Procedure: (§1) An overnight culture of S. aureus strain UAMS-1 was used to inoculate (1:100 dilution) 25 mL of fresh MH medium and growth at 37 °C on a rotary shaker at 225 rpm to exponential phase (~1 × 10^8 CFU mL^−1). Cultures were pelleted by centrifugation, washed with phosphate buffered saline (PBS), and re-suspended at ~1 × 10^7 CFU·mL^−1 in fresh PBS. G. mellonella larvae weighing 150–250 mg were inoculated with 5 µL of S. aureus into the last left proleg using a 10 µL Hamilton syringe. About 1 h after inoculation, one group of worms was treated with 2 µL DMSO as infected negative control; one group was treated with 2 µL JC2 compound at 100 mg/kg dose; another group was treated with 2 µL vancomycin at 100 mg/kg dose as standard-of-care comparison. Treatments were administered in the same manner as infection, except that each injection was in the next left proleg moving towards the head of the worm. […] In addition to the mock or compound treatment of infected larvae, a group of non-infected worm injected with DMSO or corresponding compounds were used to monitor the impact of physical trauma as well as observe toxicity associated with compound treatment.

Galleria mellonella = Galleria mellonella single tolerated dose (uninfected worms); format: in vivo; settings: single dose 100 mg·kg^−1, 16 h
Procedure: as §1

[7] = Staphylococcus aureus, UAMS1, SAR figures, S. aureus UAMS-1, read-out: MIC
[8] = Staphylococcus aureus, UAMS1, 16 h, Table S1, mupirocin synergy screening initial hits, read-out: MIC

| SMILES | MIC (S. aureus UAMS-1 [1]; [7]) [µg/mL] | IC50 ([2]; read-out: Processing IC50) [µM] | norA mRNA degradation [3] | MTT = % HepG2 cell survival (HepG2 cells) [%] | IC50 (S. aureus RnpA; read-out: Degradation IC50) [µM] | MIC (S. aureus UAMS-1 [1]; [8]) [µg/mL] | further results |
| --- | --- | --- | --- | --- | --- | --- | --- |
| CCC1CCCCN1C(=O)Nc1cccc(Cl)c1 (stereo not shown) [JC3b] | 32 (≈ 120 µM) | ≤ 500 | did not reduce cellular norA mRNA degradation | 82.8 | ≤ 500 | – | IC50 ([2]; SAR figures, read-out: pIC50 = processing IC50 (converted)): 500 µM; IC50 (S. aureus RnpA; SAR figures, read-out: dIC50 = degradation IC50): 350 µM |
| CCC1CCCCN1C(=O)Nc1cc(Cl)cc(Cl)c1 (stereo not shown) [JC3] | 1 (≈ 3.32 µM) | 175 | did not reduce cellular norA mRNA degradation | 57.9 | 500 | 1 | MIC (S. aureus UAMS-1 [1]; S. aureus UAMS-1, 16 h in MHB, listed as 9044688): 1 µg/mL (≈ 3.32 µM); effect on RnpA mRNA degradation activity (in words) (S. aureus RnpA): no appreciable effect |
| CC(C)c1ccc(OCC(=O)NNC(=S)NC(=O)c2ccco2)cc1 [RNPA2000, reference compound] | – | – | – | – | – | – | MIC (S. aureus UAMS-1 [1]; S. aureus UAMS-1, 16 h in MHB): 16 µg/mL (≈ 44.3 µM); cellular accumulation of precursor tRNA^Tyr in comparison to mock treated cells [4]: 2.31 fold; growth of RnpA-depleted cells (RnpA-KD) versus vector cells [5]: hypersusceptibility; reduction of cellular norA mRNA degradation [3]: approximately 54% |
| CC1CCN(C(=O)Nc2cc(Cl)cc(Cl)c2)CC1 [JC1] | 1 (≈ 3.48 µM) | 210 | did not reduce cellular norA mRNA degradation | 63 | 110 | 1 | MIC (S. aureus UAMS-1 [1]; S. aureus UAMS-1, 16 h in MHB, listed as 9044791): 1 µg/mL (≈ 3.48 µM) |
| CN[C@H](CC(C)C)C(=O)N[C@H]1C(=O)N[C@@H](CC(N)=O)C(=O)N[C@H]2C(=O)N[C@H]3C(=O)N[C@H](C(=O)N[C@H](C(=O)O)c4cc(O)cc(O)c4-c4cc3ccc4O)[C@H](O)c3ccc(c(Cl)c3)Oc3cc2cc(c3O[C@@H]2O[C@H](CO)[C@@H](O)[C@H](O)[C@H]2O[C@H]2C[C@](C)(N)[C@H](O)[C@H](C)O2)Oc2ccc(cc2Cl)[C@H]1O [vancomycin, reference compound] | – | – | – | – | – | – | mortality rate of S. aureus infected worms (S. aureus UAMS-1 [6]): 40%; mortality rate of uninfected worms (Galleria mellonella): 10% |
